Results on seven compounds are retold here after the supplement of paper PMC11061612.

What all share (test): Bliss excess, mean over the matrix (fraction); higher = more synergy
For assay [1], the system named is ML-2 (Acute Myeloid Leukemia). In short, it runs like this: (§1)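 Bliss excess equals the observed combination effect minus the expected value EA + EB − EA·EB, where EA and EB are the effects of each agent alone. Combination Emax is the second-highest inhibition within the matrix. Inhibition was scaled from CellTiter-Glo 2.0 luminescence, with 0 set by vehicle wells and 1 by blank wells, after 72 hours of two-drug dosing of cells plated in 1536-well plates.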

In assay [2] the test system is NCI-H522 (Lung Adenocarcinoma). Put shortly: as §1
The subject of assay [3] is OE33 (Esophageal Adenocarcinoma). Put shortly: as §1
Assay [4] concerns COLO-668 (Small Cell Lung Carcinoma). In short, it runs like this: as §1
The subject of assay [5] is G-401 (Other Solid Carcinomas). In short, it runs like this:
as §1

Assay [6] relates to Mo-T (Other Blood Carcinomas). Put shortly:
as §1

The test system of assay [7] is MOLT-4 (T-Lymphoblastic Leukemia). In short, it runs like this: as §1
Assay [8] has as its system MDA-MB-453 (Breast Carcinoma). In short, it runs like this:
as §1

Assay [9] relates to ALL-SIL (T-Lymphoblastic Leukemia). In short, it runs like this:
as §1

The subject of assay [10] is LC-1-sq (Squamous Cell Lung Carcinoma). In short, it runs like this: as §1
In assay [11] the test system is NCI-H650 (Lung Adenocarcinoma). Put shortly:
as §1

The test system of assay [12] is ME-180 (Cervical Carcinoma). In short, it runs like this:
as §1

Assay [13] relates to NCI-H2122 (Lung Adenocarcinoma). In short, it runs like this:
as §1

The subject of assay [14] is HCC1500 (Breast Carcinoma). In short, it runs like this:
as §1

The test system of assay [15] is A4-Fuk (B-Lymphoblastic Leukemia). In short, it runs like this: as §1
The test system of assay [16] is SK-N-AS (Neuroblastoma). Put shortly: as §1
Assay [17] concerns COLO-679 (Melanoma). Put shortly:
as §1

Assay [18] has as its system SKN (Other Solid Carcinomas). In short, it runs like this: as §1
Assay [19] deals with NCI-H1355 (Lung Adenocarcinoma). In short, it runs like this: as §1
Assay [20] concerns NCI-H1838 (Lung Adenocarcinoma). In short, it runs like this:
as §1

As for `COc1nnc2ccc(N3CCC(c4ccc(OCCN5CCN(C)C(=O)[C@H]5C)cc4)CC3)nn12` [AZD5153] + Cc1c2c(nn1C)CSCc1cc(n(C)n1)CSc1cc(c3ccccc3c1)OCCCc1c(C(=O)O)n(C)c3c-2c(Cl)ccc13 [AZD5991] (first compound max 1 µM, 7x7, partner max 1 µM), the Bliss excess in assay [1] was 0.0582; in [2] it was 0.0012; in assay [3] it was -0.0711; in [4] it was 0.0265; in assay [5], 0.0312; in assay [6], -0.0592. Also, the Bliss excess is 0.0492 in assay [7]; 0.0437 in [8]; 0.041 in assay [9]; 0.0198 in assay [10]; -0.03 in assay [11]; -0.0435 in [12]. The Bliss excess in assay [13] was -0.0402; in [14], 0.052; in [15], -0.044; in [16], -0.0164; in assay [17], -0.0101; in [18], -0.058. Moreover, the Bliss excess in [19] was -0.0274; in assay [20], -0.0412.

As to `COc1nnc2ccc(N3CCC(c4ccc(OCCN5CCN(C)C(=O)[C@H]5C)cc4)CC3)nn12` [AZD5153] + Cn1cnc2c(F)c(Nc3ccc(Br)cc3Cl)c(C(=O)NOCCO)cc21 [Selumetinib] (first compound max 1 µM, 7x7, partner max 10 µM), the Bliss excess in [1] was 0.075; in assay [2], -0.042; in assay [3], 0.0318; in assay [4], 0.236; in assay [5], -0.0761; in assay [6] it was -0.0656. Moreover, the Bliss excess was -0.0161 in [7]; -0.0141 in assay [8]; -0.0303 in [9]; 0.0073 in assay [10]; 0.0339 in assay [11]; -0.019 in assay [12]. Also, the Bliss excess was 0.0659 in assay [13]; 0.0011 in assay [14]; -0.0175 in assay [15]; 0.0307 in assay [16]; -0.004 in assay [17]; -0.0084 in [18]. Moreover, the Bliss excess in [19] amounted to 0.0212; in [20] it was 0.03.

Take `Cc1c2c(nn1C)CSCc1cc(n(C)n1)CSc1cc(c3ccccc3c1)OCCCc1c(C(=O)O)n(C)c3c-2c(Cl)ccc13` [AZD5991] + C1CN(CCC1(C(=O)N[C@@H](CCO)C2=CC=C(C=C2)Cl)N)C3=NC=NC4=C3C=CN4 [Capivasertib] (first compound max 1 µM, 7x7, partner max 3 µM): the Bliss excess is -0.0159 in assay [1]; 0.0415 in assay [2]; -0.0328 in assay [3]; 0.0516 in assay [4]; 0.0486 in assay [5]; -0.0046 in assay [6]. For the same compound, the Bliss excess in assay [7] is 0.0964; in [8] it was 0.05; in [9], -0.0384; in assay [10] it was -0.0015; in [11], -0.0044; in assay [12], -0.028. The Bliss excess in assay [13] is 0.0061; in [14], 0.0467; in assay [15], -0.0011; in [16], 0.0017; in [17], -0.0179; in assay [18] it was -0.024. Further, the results for the Bliss excess in assay [19] and in assay [20] were -0.0016 and 0.0017, respectively.

With `Cc1c2c(nn1C)CSCc1cc(n(C)n1)CSc1cc(c3ccccc3c1)OCCCc1c(C(=O)O)n(C)c3c-2c(Cl)ccc13` [AZD5991] + CC1(C)CCC(CN2CCN(c3ccc(C(=O)NS(=O)(=O)c4ccc(NCC5CCOCC5)c([N+](=O)[O-])c4)c(Oc4cnc5[nH]ccc5c4)c3)CC2)=C(c2ccc(Cl)cc2)C1 [Venetoclax] (first compound max 1 µM, 7x7, partner max 1 µM), the Bliss excess in assay [1] is 0.16; in assay [2] it was -0.0118; in assay [3] it was -0.0077; in assay [4], 0.0932; in [5], 0.0446; in [6] it was -0.0211. For the same compound, the Bliss excess in assay [7] was 0.124; in [8], 0.0023; in [9] it was 0.0333; in assay [10], 0.0184; in [11], -0.0014; in assay [12], 0.0131. For the same compound, the Bliss excess in [13] is 0.0016; in assay [14], 0.256; in assay [15], -0.03; in assay [16], 0.0857; in assay [17], -0.0218; in assay [18], -0.0031. The results for the Bliss excess in [19] and in [20] were -0.0567 and 0.0125, respectively.

In the case of `Cc1c2c(nn1C)CSCc1cc(n(C)n1)CSc1cc(c3ccccc3c1)OCCCc1c(C(=O)O)n(C)c3c-2c(Cl)ccc13` [AZD5991] + CN(C)CCCOc1ccc(-c2ccc3ncc4c(c3c2)n(C2CCOCC2)c(=O)n4C)cn1 [AZD0156] (first compound max 1 µM, 7x7, partner max 1 µM), the Bliss excess in assay [1] is -0.0149; in assay [2], -0.0354; in assay [3], -0.0227; in assay [4], 0.0135; in assay [5] it was 0.0014; in assay [6], -0.0236. In addition, the Bliss excess was -0.0058 in [7]; -0.0091 in assay [8]; 0.0049 in assay [9]; 0.0103 in assay [10]; 0.0527 in assay [11]; 0.0231 in assay [12]. Besides, the Bliss excess in assay [13] was 0.0237; in [14] it was 0.0453; in assay [15] it was -0.0032; in [16] it was -0.0303; in assay [17], 0.0068; in assay [18], -0.0055. Moreover, the Bliss excess in assay [19] is -0.0298; in assay [20], 0.043.

Regarding `Cc1c2c(nn1C)CSCc1cc(n(C)n1)CSc1cc(c3ccccc3c1)OCCCc1c(C(=O)O)n(C)c3c-2c(Cl)ccc13` [AZD5991] + C[C@@H]1COCCN1C2=NC(=NC(=C2)C3(CC3)[S@](=N)(=O)C)C4=C5C=CNC5=NC=C4 [AZD6738] (first compound max 1 µM, 7x7, partner max 10 µM), the Bliss excess was -0.0999 in assay [1]; 0.0595 in assay [2]; -0.0688 in [3]; -0.0064 in assay [4]; -0.0341 in [5]; 0.0152 in assay [6]. Also, the Bliss excess in [7] came out at 0.0318; in assay [8] it was 0.0525; in assay [9], 0.0316; in assay [10] it was 0.047; in [11] it was 0.0217; in assay [12], 0.0329. Further, the Bliss excess in assay [13] is 0.0199; in assay [14], 0.105; in assay [15] it was -0.0297; in assay [16], -0.0034; in assay [17], 0.0047; in assay [18] it was -0.0121. Besides, the Bliss excess was 0.0264 in assay [19] and -0.0021 in assay [20].

Turning to `Cc1c2c(nn1C)CSCc1cc(n(C)n1)CSc1cc(c3ccccc3c1)OCCCc1c(C(=O)O)n(C)c3c-2c(Cl)ccc13` [AZD5991] + C[C@@H](Nc1cc(F)cc(F)c1)c1cc(C(=O)N(C)C)cc2c(=O)cc(N3CCOCC3)oc12 [AZD8186] (first compound max 1 µM, 7x7, partner max 3 µM), the Bliss excess was -0.0218 in [1]; 0.0196 in assay [2]; -0.0003 in assay [3]; -0.0011 in [4]; -0.0579 in [5]; -0.0239 in assay [6]. Further, the Bliss excess was 0.0193 in [7]; -0.0506 in [8]; -0.0301 in assay [9]; 0.0352 in [10]; -0.0023 in [11]; -0.0244 in assay [12]. Besides, the Bliss excess was 0.0684 in assay [13]; 0.0182 in [14]; -0.023 in [15]; -0.0122 in [16]; 0.0127 in assay [17]; -0.0142 in assay [18]. Besides, the Bliss excess in assay [19] is -0.064; in [20], 0.0503.
